Key:
[1] = system: NAP1L1 Cys-388, NAP1L4 Cys-383; assay: quantifying prenylated (farnesylated) proteins in hCO proteomics; format: cell-based, human
Description: Targeted data extraction to quantify prenylated peptides was performed manually in the Skyline Environment (MacLean et al., 2010) on Andremoda/MaxQuant search results which included the variable modification of farnesylation (cysteine; C15H24; 204.1878) and geranylation (cysteine; […]; 272.2504) with neutral loss. Only peptides with an Andromeda score >100 and a localization probability >0.75% were included in the analysis.
Given that several metabolites of the mevalonate pathway are required for post-translational modifications such as prenylation, we next performed targeted data extraction of our proteomic analysis (Gillet et al., 2012) for the addition of geranylgeranyl or farnesyl groups. We identified key targets of farnesylation, including NAP1L1 at Cys-388, which was also shown to be farnesylated in a prior study (Kho et al., 2004), and NAP1L4 at Cys-383, which we have identified as a novel farnesylated protein (FIG. 15C).

[2] = system: hPSC-CMs; assay: 2D high-content primary screen, DNA synthesis (EdU) in hPSC-CM; format: cell-based, human; settings: for 2D Screen Max Effect (%): maximum over 0.1, 1, 10 uM
Excerpt: (§1) The compound library included 5,000 biologically annotated pre-clinical, clinical, and tool compounds. They were selected based on a combination of criteria including balancing the number of external/internal compounds, diversity of annotated targets to cover greater than 1500 biological targets, and known targets associated with cell proliferation. […] Both negative vehicle (DMSO) and positive (CHIR99021) controls were included on each plate in each experiment (FIG. 2B,C).

[3] = system: mature hCOs; assay: mature hCO, cardiomyocyte number, hCO size, bi-nucleation, cardiomyocyte size; format: cell-based, human; settings: for cardiomyocyte number / bi-nucleation / hCO size (α-actinin area): 3 μM compound 3 or 1 μM compound 65; for bi-nucleation: 4 days; for hCO size (α-actinin area): 7 days
Description: For more detailed images an Olympus IX81 confocal microscope was used for mounted hCO imaging. For cell cycle analysis experiments 3 random fields of view were imaged and manually quantified for proliferation. These were added together to calculate the percentage of hPSC-CM proliferation in each hCO.
Cells were dissociated by washing in perfusion buffer at 37° C. (130 mM NaCl, 1 mM MgCl2, 5 mM KCl, 0.5 mM NaH2PO4, 10 mM HEPES, 10 mM Taurine, 10 mM glucose, 10 μM 2,3-butanedione monoxime, pH 7.4). hCO were then incubated in EDTA buffer at 37° C. for 5 min (130 mM NaCl, 5 mM KCl, 0.5 mM NaH2PO4, 10 mM HEPES, 10 mM Taurine, 10 mM glucose, 5 mM EDTA, 10 μM 2,3-butanedione monoxime, pH 7.4). hCO were washed in perfusion buffer and then incubated in perfusion buffer plus 1 mg/ml collagenase B (Roche) for 15 min at 37° C. on a shaker at 500 rpm. Equivolume 0.25% trypsin-EDTA (ThermoFisher) was then added and the hCOs were incubated for 10 min at 37° C. on a shaker at 500 rpm. Perfusion buffer with 5% FBS was then added and the single cells pelleted by centrifuging at 1000×g for 3 min. The cells were then resuspended in 1% para-formaldehyde and incubated for 5 min at room temperature. hCO were then centrifuged at 1000×g for 3 min, paraformaldehyde removed, suspended in PBS and counted using a haemocytometer.
Hits were next validated in mature hCOs using a targeted concentration range based on their active concentrations in the initial immature hCO screen (FIG. 3A). Proliferation markers were quantified using high magnification confocal imaging as we found flow cytometry to be inaccurate in hCO (data not shown). Compounds 3, 63 and 65 had no impact on contractile force (FIG. 3B) at concentrations of 3 μM, 0.3 μM and 1 μM, respectively. […] The effects of both compound 3 and compound 65 were reversible, with proliferation ceasing within 5 days of compound withdrawal (FIG. 8B). Therefore, compound 3 (FIG. 3G) and compound 65 (Goldberg et al., 2009) (FIG. 3H) are both capable of inducing bona fide cardiomyocyte proliferation in mature hCOs without adversely affecting contractile properties.

[4] = molecular target: kinases (Homo sapiens, UniProt P29320); format: biochemical; settings: EPHA3 FRET-Lantha SP; Test Conc(μM) 1
[5] = molecular target: kinases (Homo sapiens, UniProt Q16644); format: biochemical; settings: MAPKAPK3 FRET-Z-Lyte SP; Test Conc(μM):ATP Conc(μM) 1:200
[6] = molecular target: kinases (Homo sapiens, UniProt P54764); format: biochemical; settings: EPHA4 FRET-Z-Lyte SP; Test Conc(μM):ATP Conc(μM) 1:100
[7] = molecular target: kinases (Homo sapiens, UniProt Q9UBF8); format: biochemical; settings: PI4KB FRET-Adapta SP; Test Conc(μM):ATP Conc(μM) 1:5
[8] = system: immature hCOs; assay: immature hCO screen, force of contraction; format: cell-based, human; settings: 2 days
Description: The pole deflection was used to approximate the force of contraction as per (Mills et al., 2017a). A Leica DMi8 inverted high content Imager was used to capture a 10 s time-lapse of each hCO contracting in real time at 37° C. Custom batch processing files were written in Matlab R2013a (Mathworks) to convert the stacked TIFF files to AVI, track the pole movement (using vision.PointTracker), determine the contractile parameters, produce a force-time figure, and export the batch data to an Excel (Microsoft) spreadsheet.
as §1

kinases (Homo sapiens, UniProt Q9UBF8), sequence (Q9UBF8 whole entry): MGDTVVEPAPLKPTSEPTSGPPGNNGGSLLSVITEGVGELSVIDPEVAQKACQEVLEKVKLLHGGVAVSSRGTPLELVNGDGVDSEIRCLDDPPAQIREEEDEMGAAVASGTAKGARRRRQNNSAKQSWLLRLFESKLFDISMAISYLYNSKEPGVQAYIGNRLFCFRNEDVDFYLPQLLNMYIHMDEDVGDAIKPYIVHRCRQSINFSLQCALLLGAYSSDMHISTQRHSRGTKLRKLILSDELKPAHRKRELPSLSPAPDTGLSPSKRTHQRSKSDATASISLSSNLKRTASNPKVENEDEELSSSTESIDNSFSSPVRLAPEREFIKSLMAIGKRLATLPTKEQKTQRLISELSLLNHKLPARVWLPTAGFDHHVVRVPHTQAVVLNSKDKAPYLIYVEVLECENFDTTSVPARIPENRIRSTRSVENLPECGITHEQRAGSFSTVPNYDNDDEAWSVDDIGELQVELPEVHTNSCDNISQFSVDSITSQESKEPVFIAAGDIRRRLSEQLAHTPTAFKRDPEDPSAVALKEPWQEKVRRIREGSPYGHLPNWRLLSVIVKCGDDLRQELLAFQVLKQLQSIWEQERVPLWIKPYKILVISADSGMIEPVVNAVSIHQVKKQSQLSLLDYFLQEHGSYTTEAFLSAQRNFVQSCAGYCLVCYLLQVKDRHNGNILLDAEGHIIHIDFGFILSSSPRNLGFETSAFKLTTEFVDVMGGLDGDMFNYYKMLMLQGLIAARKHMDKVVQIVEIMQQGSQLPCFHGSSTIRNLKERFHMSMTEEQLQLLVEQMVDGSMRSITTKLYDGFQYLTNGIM
kinases (Homo sapiens, UniProt Q16644), sequence (Q16644 whole entry): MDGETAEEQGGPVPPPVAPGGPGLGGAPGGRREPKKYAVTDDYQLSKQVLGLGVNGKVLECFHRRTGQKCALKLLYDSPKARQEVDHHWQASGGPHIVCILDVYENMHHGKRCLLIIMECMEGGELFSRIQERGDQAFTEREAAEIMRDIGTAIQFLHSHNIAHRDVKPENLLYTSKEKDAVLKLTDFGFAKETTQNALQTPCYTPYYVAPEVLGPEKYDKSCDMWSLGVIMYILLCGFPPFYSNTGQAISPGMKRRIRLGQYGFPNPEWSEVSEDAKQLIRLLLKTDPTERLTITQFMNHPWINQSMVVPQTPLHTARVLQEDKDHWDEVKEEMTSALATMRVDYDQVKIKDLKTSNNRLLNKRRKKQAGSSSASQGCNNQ
kinases (Homo sapiens, UniProt P54764), sequence (P54764 20-986): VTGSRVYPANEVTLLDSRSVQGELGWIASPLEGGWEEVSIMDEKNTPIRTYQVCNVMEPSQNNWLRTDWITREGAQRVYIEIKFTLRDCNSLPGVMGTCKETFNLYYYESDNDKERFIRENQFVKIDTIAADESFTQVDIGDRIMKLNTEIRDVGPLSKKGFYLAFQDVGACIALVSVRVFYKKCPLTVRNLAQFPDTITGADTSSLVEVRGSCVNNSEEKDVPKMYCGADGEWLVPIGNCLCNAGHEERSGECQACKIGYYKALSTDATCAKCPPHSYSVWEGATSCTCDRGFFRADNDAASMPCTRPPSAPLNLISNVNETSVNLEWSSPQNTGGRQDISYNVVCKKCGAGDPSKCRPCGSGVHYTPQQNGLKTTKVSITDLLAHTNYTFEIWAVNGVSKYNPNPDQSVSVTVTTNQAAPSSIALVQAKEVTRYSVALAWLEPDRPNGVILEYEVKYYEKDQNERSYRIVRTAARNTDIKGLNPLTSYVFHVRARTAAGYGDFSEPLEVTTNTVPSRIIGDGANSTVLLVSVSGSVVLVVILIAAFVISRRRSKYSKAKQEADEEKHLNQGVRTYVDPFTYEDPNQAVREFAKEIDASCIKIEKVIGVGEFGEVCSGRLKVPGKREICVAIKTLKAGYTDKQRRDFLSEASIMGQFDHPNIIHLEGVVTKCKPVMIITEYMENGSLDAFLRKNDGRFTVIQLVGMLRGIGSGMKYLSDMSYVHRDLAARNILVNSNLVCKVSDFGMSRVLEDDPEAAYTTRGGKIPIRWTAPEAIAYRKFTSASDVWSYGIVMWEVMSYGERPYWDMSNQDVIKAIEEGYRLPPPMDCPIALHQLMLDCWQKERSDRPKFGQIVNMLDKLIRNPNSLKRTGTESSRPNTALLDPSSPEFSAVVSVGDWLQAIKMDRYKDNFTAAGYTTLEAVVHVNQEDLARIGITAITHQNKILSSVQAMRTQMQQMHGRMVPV
kinases (Homo sapiens, UniProt P29320), sequence (P29320 21-983): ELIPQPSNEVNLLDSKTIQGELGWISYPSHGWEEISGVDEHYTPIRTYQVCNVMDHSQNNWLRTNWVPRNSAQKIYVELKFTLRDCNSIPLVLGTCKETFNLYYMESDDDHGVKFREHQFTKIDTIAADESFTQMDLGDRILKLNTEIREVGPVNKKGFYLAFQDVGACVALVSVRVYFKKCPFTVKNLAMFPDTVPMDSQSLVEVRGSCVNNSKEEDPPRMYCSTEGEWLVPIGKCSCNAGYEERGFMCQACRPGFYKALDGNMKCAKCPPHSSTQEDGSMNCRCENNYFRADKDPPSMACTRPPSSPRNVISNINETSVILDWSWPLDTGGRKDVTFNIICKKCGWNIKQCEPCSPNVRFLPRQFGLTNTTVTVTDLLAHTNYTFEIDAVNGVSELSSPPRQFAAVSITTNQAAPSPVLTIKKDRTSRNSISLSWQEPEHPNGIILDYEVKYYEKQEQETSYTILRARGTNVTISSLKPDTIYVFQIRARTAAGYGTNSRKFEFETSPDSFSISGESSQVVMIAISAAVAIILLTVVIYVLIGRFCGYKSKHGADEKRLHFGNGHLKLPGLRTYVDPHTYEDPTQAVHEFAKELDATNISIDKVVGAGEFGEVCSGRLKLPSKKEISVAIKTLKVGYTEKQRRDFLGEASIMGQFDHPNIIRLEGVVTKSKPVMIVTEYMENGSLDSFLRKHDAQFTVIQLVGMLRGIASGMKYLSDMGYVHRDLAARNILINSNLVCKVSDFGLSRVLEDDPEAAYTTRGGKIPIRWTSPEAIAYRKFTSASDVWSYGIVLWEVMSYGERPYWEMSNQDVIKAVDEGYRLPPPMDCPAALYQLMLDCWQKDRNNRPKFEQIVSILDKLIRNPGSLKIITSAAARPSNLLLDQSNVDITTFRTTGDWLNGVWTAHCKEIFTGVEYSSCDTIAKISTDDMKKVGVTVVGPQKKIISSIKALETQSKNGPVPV

SMILES	farnesylation of NAP1L1 at Cys-388 [1]	farnesylation of NAP1L4 at Cys-383 [1]	2D Screen (AZ) 0.1 uM Prolif Activation EdU (%) [2] [%]	2D Screen (AZ) 1 uM Prolif Activation EdU (%) [2] [%]	2D Screen (AZ) 10 uM Prolif Activation EdU (%) [2] [%]	2D Screen Max Effect (%) [2] [%]	cardiomyocyte size with 10 μM simvastatin ([3]; 3 μM compound 3, 2 days)	cardiomyocyte number [3]	cardiomyocyte size ([3]; 3 μM, 2 days)	bi-nucleation [3]	hCO size (α-actinin area) [3]	cardiomyocyte size ([3]; compound 3 or compound 65)	Mean Inhib (%) [4] [%]	Mean Inhib (%) [5] [%]	Mean Inhib (%) [6] [%]	Mean Inhib (%) [7] [%]	contractile parameters / force of contraction [8]	cardiomyocyte size, combined with 10 μM simvastatin ([3]; 1 μM, 2 days)
Cc1ccc(NC(=O)c2ccnc(N3CCOCC3)c2)cc1Nc1ccnc(N2CC(C)OC(C)C2)n1 (stereo not drawn) [compound 3]	increased	only increased farnesylation of NAP1L1	−6	35	183	183	without significant changes	increase	decreases	without an increase	increase	without an increase	4.8	1.7	6.9	−9.0	without affecting contractile parameters	–
Cc1cc(Oc2ccnc(Nc3ccc(S(N)(=O)=O)cc3)c2)c(-c2ccccn2)nc1C [compound 65]	increased	increased	48	76	171	171	–	increase	–	without an increase	increase	without an increase	27.9	−1.3	47.0	0.5	without affecting contractile parameters	increased

From patent publication US20220187282A1, “CARDIOMYOCYTE PROLIFERATION” (The Council of the Queensland Institute of Medical Research, priority 2019, published 2022)
